Measurements taken from the NIST ThermoML archive (doi:10.1016/j.fluid.2006.05.032).

Assay: xn = mol fraction of the nth substance listed
Settings: Liquid, Vibrating tube method

Cc1ccccc1 [toluene] + CCCO
mass density [kg/m3]
Settings | x2 = 0 | x2 = 0.125 | x2 = 0.25 | x2 = 0.375 | x2 = 0.5 | x2 = 0.625 | x2 = 0.75 | x2 = 0.875
323.15 K, 35000 kPa | 866 | 859.3 | 853.3 | 847.1 | 840.6 | 833.4 | 825.6 | 816.4
323.15 K, 40000 kPa | 869.4 | 862.8 | 856.5 | 850.3 | 843.9 | 836.7 | 829 | 819.8
323.15 K, 45000 kPa | 872.5 | 865.9 | 859.8 | 853.6 | 847.1 | 840 | 832.2 | 822.9
323.15 K, 50000 kPa | 875.7 | 869.2 | 863 | 856.8 | 850.3 | 843.1 | 835.3 | 826
323.15 K, 55000 kPa | 878.7 | 872.2 | 866 | 859.8 | 853.3 | 846.1 | 838.3 | 829
323.15 K, 60000 kPa | 881.7 | 875.1 | 869 | 862.7 | 856.2 | 848.9 | 841.1 | 831.9
323.15 K, 65000 kPa | 884.6 | 878.1 | 871.9 | 865.6 | 859.1 | 851.8 | 844 | 834.6
333.15 K, 100 kPa | 828.8 | 822 | 815.6 | 809.5 | 803.2 | 796.3 | 788.7 | 779.8
333.15 K, 5000 kPa | 833.5 | 826.8 | 820.5 | 814.3 | 808 | 801.1 | 793.4 | 784.4
333.15 K, 10000 kPa | 838.2 | 831.4 | 825 | 818.9 | 812.6 | 805.8 | 798.1 | 789.1
333.15 K, 15000 kPa | 842.6 | 835.7 | 829.4 | 823.3 | 817 | 810.1 | 802.4 | 793.4
333.15 K, 20000 kPa | 846.6 | 839.8 | 833.6 | 827.4 | 821.1 | 814.2 | 806.6 | 797.5
333.15 K, 25000 kPa | 850.5 | 843.8 | 837.6 | 831.4 | 825 | 818.2 | 810.5 | 801.4
333.15 K, 30000 kPa | 854.3 | 847.6 | 841.4 | 835.2 | 828.8 | 821.9 | 814.1 | 805
333.15 K, 35000 kPa | 857.9 | 851.3 | 845 | 838.9 | 832.5 | 825.6 | 817.8 | 808.6
333.15 K, 40000 kPa | 861.4 | 854.8 | 848.6 | 842.4 | 836 | 829.1 | 821.2 | 812
333.15 K, 45000 kPa | 864.8 | 858.2 | 852 | 845.8 | 839.4 | 832.4 | 824.6 | 815.4
333.15 K, 50000 kPa | 868.1 | 861.5 | 855.2 | 849 | 842.7 | 835.6 | 827.8 | 818.6
333.15 K, 55000 kPa | 871.4 | 864.6 | 858.4 | 852.2 | 845.8 | 838.8 | 831 | 821.9
333.15 K, 60000 kPa | 874.5 | 867.8 | 861.4 | 855.3 | 848.9 | 841.8 | 834 | 824.8
333.15 K, 65000 kPa | 877.5 | 870.7 | 864.5 | 858.3 | 851.9 | 844.8 | 836.9 | 827.7
343.15 K, 100 kPa | 819.4 | 812.2 | 805.5 | 799.4 | 793.3 | 786.5 | 779.1 | 770.7
343.15 K, 5000 kPa | 824.5 | 817.3 | 810.8 | 804.6 | 798.4 | 791.7 | 784.2 | 775.8
343.15 K, 10000 kPa | 829.3 | 822.3 | 815.8 | 809.6 | 803.4 | 796.6 | 789.1 | 780.6
343.15 K, 15000 kPa | 833.9 | 826.9 | 820.4 | 814.3 | 808.1 | 801.3 | 793.8 | 785.1
343.15 K, 20000 kPa | 838.1 | 831.3 | 824.9 | 818.7 | 812.4 | 805.7 | 798.1 | 789.5
343.15 K, 25000 kPa | 842.3 | 835.5 | 829.1 | 822.9 | 816.6 | 809.8 | 802.2 | 793.5
343.15 K, 30000 kPa | 846.2 | 839.5 | 833.1 | 827 | 820.7 | 813.9 | 806.2 | 797.4
343.15 K, 35000 kPa | 850.1 | 843.2 | 837 | 830.7 | 824.5 | 817.6 | 809.9 | 801.1
343.15 K, 40000 kPa | 853.7 | 847 | 840.6 | 834.4 | 828.2 | 821.4 | 813.5 | 804.6
343.15 K, 45000 kPa | 857.4 | 850.4 | 844.3 | 838 | 831.8 | 824.9 | 817.2 | 808.2
343.15 K, 50000 kPa | 860.8 | 853.9 | 847.7 | 841.4 | 835.2 | 828.2 | 820.5 | 811.4
343.15 K, 55000 kPa | 864.2 | 857.1 | 851 | 844.8 | 838.5 | 831.5 | 823.7 | 814.7
343.15 K, 60000 kPa | 867.4 | 860.5 | 854.3 | 848 | 841.8 | 834.8 | 826.9 | 817.7
343.15 K, 65000 kPa | 870.3 | 863.6 | 857.4 | 851.1 | 844.9 | 837.8 | 829.9 | 820.7
353.15 K, 100 kPa | 809.7 | 802.7 | 795.9 | 789.9 | 783.8 | 777 | 769 | 760.6
353.15 K, 5000 kPa | 815.1 | 808 | 801.4 | 795.3 | 789.2 | 782.3 | 774.4 | 766.1
353.15 K, 10000 kPa | 820.3 | 813.3 | 806.7 | 800.6 | 794.6 | 787.7 | 779.6 | 771.2
353.15 K, 15000 kPa | 825.3 | 818.2 | 811.6 | 805.5 | 799.5 | 792.6 | 784.6 | 776.2
353.15 K, 20000 kPa | 829.9 | 822.9 | 816.3 | 810.2 | 804.2 | 797.3 | 789.1 | 780.7
353.15 K, 25000 kPa | 834 | 827.3 | 820.8 | 814.7 | 808.7 | 801.7 | 793.5 | 784.9
353.15 K, 30000 kPa | 838.2 | 831.6 | 825 | 818.9 | 813 | 805.9 | 797.6 | 789
353.15 K, 35000 kPa | 842.2 | 835.6 | 829.1 | 822.9 | 817 | 809.9 | 801.6 | 792.9
353.15 K, 40000 kPa | 846.1 | 839.4 | 833 | 826.8 | 820.8 | 813.7 | 805.4 | 796.6
353.15 K, 45000 kPa | 849.8 | 843.2 | 836.7 | 830.6 | 824.6 | 817.4 | 809.1 | 800.3
353.15 K, 50000 kPa | 853.3 | 846.8 | 840.3 | 834.2 | 828.1 | 820.9 | 812.5 | 803.7
353.15 K, 55000 kPa | 856.7 | 850.2 | 843.8 | 837.6 | 831.6 | 824.4 | 815.8 | 807
353.15 K, 60000 kPa | 860.1 | 853.6 | 847.2 | 840.9 | 835 | 827.7 | 818.9 | 810.3
353.15 K, 65000 kPa | 863.5 | 856.8 | 850.4 | 844.2 | 838.3 | 830.9 | 822.5 | 813.6
